In patent publication US20130116277A1, “ALDO-KETO REDUCTASE SUBFAMILY 1C3 (AKR1C3) INHIBITORS” (priority 2007, published 2013):
Values joined by “and” are separate entries in the source; they are usually repeats but may differ in a detail not shown here. Equal entries are not always repeated. Where two headings read alike, the source gives them in different places.

How the values were obtained:
ER-α = target: T1, ER-α (Homo sapiens, UniProt P03372); test: ER-α ligand binding domain competitive binding with [3H]Estradiol
T1 sequence (P03372 311-547 limits assumed): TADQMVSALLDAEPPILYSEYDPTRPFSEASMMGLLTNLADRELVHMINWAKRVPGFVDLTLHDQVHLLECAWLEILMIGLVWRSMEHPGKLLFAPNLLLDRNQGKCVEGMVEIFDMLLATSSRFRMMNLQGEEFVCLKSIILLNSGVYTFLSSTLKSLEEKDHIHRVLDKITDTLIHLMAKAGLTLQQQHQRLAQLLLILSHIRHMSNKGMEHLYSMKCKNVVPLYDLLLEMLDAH

ER-β = ER-β (Homo sapiens, UniProt Q92731); test: ER-β ligand binding domain competitive binding with [3H]Estradiol
ER-β, sequence (Q92731 264-498 limits assumed, species assumed): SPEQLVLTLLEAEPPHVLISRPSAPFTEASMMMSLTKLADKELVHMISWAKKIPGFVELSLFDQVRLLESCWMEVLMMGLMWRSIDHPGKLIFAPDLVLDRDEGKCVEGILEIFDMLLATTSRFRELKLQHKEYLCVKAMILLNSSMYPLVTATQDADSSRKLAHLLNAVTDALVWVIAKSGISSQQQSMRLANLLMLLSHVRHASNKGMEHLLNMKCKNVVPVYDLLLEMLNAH

ER-alpha = target: T2, ER-alpha (Homo sapiens, UniProt P03372); test: ER-alpha transactivation (ERE-LUC luciferase) in HEK-293 cells; type: cell-based; conditions: for EC50: read-out: Agonist ER-α; for IC50: antagonist mode, in combination with estradiol, read-out: Antagonist ER-α;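 as to all read-outs here: HEK-293 cells co-transfected with an ER-alpha expression plasmid, an ERE-driven firefly luciferase reporter and a CMV Renilla control, with the firefly signal normalized to Renilla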
T2 construct: expressed in transfected cells; host or cells: HEK-293
T2 sequence (P03372 1-595): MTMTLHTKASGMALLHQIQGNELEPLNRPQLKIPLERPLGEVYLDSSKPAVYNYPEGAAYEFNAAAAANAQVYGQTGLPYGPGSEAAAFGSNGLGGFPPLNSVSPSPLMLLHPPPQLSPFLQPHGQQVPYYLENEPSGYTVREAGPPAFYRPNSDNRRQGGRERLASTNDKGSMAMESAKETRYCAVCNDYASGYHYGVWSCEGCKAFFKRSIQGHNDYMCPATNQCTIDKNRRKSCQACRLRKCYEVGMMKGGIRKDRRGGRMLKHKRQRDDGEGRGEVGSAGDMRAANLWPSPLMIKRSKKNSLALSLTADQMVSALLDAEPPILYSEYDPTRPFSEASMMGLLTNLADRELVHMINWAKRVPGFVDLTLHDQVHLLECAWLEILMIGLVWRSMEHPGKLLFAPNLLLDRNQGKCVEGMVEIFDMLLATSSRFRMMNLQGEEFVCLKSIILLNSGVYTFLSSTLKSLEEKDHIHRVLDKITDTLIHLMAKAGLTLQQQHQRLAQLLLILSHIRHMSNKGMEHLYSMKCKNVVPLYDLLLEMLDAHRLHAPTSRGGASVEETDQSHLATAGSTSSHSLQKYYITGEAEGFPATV

ER-beta = target: T3, ER-beta (Homo sapiens, UniProt Q92731); test: ER-beta transactivation (ERE-LUC luciferase) in HEK-293 cells; type: cell-based; conditions: for EC50: read-out: Agonist ER-β; for IC50: antagonist mode, in combination with estradiol, read-out: Antagonist ER-β;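 as to all read-outs here: HEK-293 cells transiently transfected with an ER-β expression plasmid and ERE-LUC reporter, firefly luciferase read-out normalized to co-transfected Renilla luciferase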
T3 construct: expressed in transfected cells; host or cells: HEK-293
T3 sequence (Q92731 whole entry, species assumed): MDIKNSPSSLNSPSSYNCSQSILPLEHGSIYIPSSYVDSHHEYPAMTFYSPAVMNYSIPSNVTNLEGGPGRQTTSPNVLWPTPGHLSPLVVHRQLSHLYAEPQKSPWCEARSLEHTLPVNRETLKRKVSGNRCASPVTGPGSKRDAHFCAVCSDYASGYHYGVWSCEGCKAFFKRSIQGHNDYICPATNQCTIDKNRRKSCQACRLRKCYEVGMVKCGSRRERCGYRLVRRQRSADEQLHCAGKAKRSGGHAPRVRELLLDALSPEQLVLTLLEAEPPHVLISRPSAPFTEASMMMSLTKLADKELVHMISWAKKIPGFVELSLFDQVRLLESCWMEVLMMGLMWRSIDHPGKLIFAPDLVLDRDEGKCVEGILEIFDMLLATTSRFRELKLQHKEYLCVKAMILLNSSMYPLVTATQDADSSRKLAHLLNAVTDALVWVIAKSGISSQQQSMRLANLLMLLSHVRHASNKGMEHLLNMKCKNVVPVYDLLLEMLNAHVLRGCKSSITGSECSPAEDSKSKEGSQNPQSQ

AKR1C3 [1] = target: T4, AKR1C3 (Homo sapiens, UniProt P42330); test: Purified AKR1C3 enzyme assay, [14C]-A'dione to testosterone, TLC based; type: biochemical; design: GST (N); made in house; host or cells: bacterial culture, IPTG induced (E. coli BL21-DE3 is named only for the crystallography preparation)
T4 sequence (P42330 1-323): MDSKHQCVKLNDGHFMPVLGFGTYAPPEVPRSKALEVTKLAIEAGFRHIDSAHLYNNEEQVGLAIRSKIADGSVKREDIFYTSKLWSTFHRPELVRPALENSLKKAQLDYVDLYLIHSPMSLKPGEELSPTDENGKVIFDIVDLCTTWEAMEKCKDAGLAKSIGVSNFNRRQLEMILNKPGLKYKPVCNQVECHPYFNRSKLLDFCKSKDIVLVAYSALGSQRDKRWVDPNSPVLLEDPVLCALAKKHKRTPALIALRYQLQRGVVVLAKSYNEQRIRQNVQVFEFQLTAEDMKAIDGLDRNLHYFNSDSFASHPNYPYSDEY
Description: Perkin Elmer; […] American Radiolabeled Chemicals, St. Louis, Mo.). The reaction was stopped by the addition of 400 μl ethyl acetate, vortexed, and spun for […] at 2000 rpm. The upper layer was transferred to a new tube and air dried. The pellet was resuspended in 25 μl of methanol, spotted on TLC plates and fractionated in TLC chamber with 3:1 chloroform:ethyl acetate. Once the mobile phase reached the top, the plates were dried and exposed to a phosphoimager screen overnight. […] Perkin Elmer) was incubated at 37° C. for 60 min. The reaction was stopped by the addition of 400 μl ethyl acetate, vortexed, and spun for […] at 2000 rpm. The upper layer was transferred to a new tube and air dried. The pellet was resuspended in 25 μl of methanol, spotted on TLC plates and fractionated in TLC chamber with 3:1 chloroform:ethyl acetate. Once the mobile phase reached the top, the plates were dried and exposed to a phosphoimager screen overnight.

[2] = Liver microsome incubation (HLM Phase I and Phase I + II), LC-MS/MS; type: in vitro ADME, human; conditions: for microsomal CLint: human, human liver microsomes
Description: Stock solutions of prespective AKR1C3 inhibitors were prepared in DMSO at 5 mM and were incubated with liver microsomes (0.1 mg/mL). Incubations were conducted at 37° C. in a shaking water bath for 10 minutes (microsomes). Incubation durations were selected based on time course study (microsomes) or published literature (recombinant enzymes). Prepared samples were analyzed using LC-MS/MS.

AKR1C3 [3] = target: T4, AKR1C3; test: cell-based
Description: AKR1C3 expression was checked by Western blot to ensure that the cells over-express AKR1C3. […] Medium was changed to RPMI+1% csFBS without phenol red and maintained in this medium for 3 days to reduce basal hormone levels. […] The data was plotted in SigmaPlot (Systat Software Inc.) and the IC50 values for inhibitors were calculated.
HEK-293 cells stably transfected with AKR1C3 were plated in 24 well plates and were maintained in RPMI+1% csFBS without phenol red for 2 days to reduce the basal steroid levels.

[4] = read-out: % inhibition from control HSD-5 (10 uM)
[5] = 10 μM inhibitor, purified AKR1C3 TLC based enzyme assay, read-out: AKR1C3 inhibition at 10 μM
[6] = HLM Phase I + II, read-out: HLM Phase I + II CLint
[7] = HLM Phase I, read-out: HLM Phase I CLint

Structure (SMILES)	Ki (ER-α) [nM]	Ki (ER-β) [nM]	EC50 (ER-alpha; agonist mode, drug alone) [nM]	IC50 (ER-alpha) [nM]	EC50 (ER-beta; agonist mode, drug alone) [nM]	IC50 (ER-beta) [nM]	inhibition at 10 µM (AKR1C3 [1]; [4]) [%]	inhibition at 10 µM (AKR1C3 [1]; [5]) [%]	HLM Phase I CLint ([2]; HLM Phase I)	HLM Phase I T-1/2 ([2]; HLM Phase I)	HLM Phase I + II CLint ([2]; HLM Phase I + II) [µL/min/mg]	HLM Phase I + II T-1/2 ([2]; HLM Phase I + II)	microsomal CLint [2, 6] [µL/min/mg]	microsomal CLint [2, 7] [µL/min/mg]	Agonist ER-α (ER-alpha; agonist mode, drug alone)	Agonist ER-β (ER-beta; agonist mode, drug alone)	IC50 (AKR1C3 [3]) [nM]
CCOC(=O)/C=C/c1cn(-c2ccc(OC)cc2)c(=O)c2c(O)cc(OC)cc12 [Compound 15j]	> 1510	> 2200	> 10000	> 10000	> 10000	> 10000	10	–	–	–	–	–	–	–	–	–	–
COc1ccc(-c2cn(-c3ccc(CO)cc3)c(=O)c3ccc(OC)cc23)cc1 [Compound 10, 2-(4-hydroxymethyl)phenyl-6-methoxy-4-(4-methoxyphenyl)-isoquinolin-1(2H)-one]	> 1510	> 2200	> 10000	> 10000	> 10000	> 10000	17	17	–	–	–	–	–	–	–	–	–
O=c1c2c(O)cc(O)cc2c(Br)cn1-c1cccc(O)c1 [ZW-315-047]	503	7.23	–	1720	–	2210	30	–	20.16 µL/min/mg and 19.5 µL/min/mg and 23.7 µL/min/mg	41.58 min and 33.55 min and 35.5 min and 29.3 min	460	1.56 min and 1.5 min	442	16	Partial agonist	Partial agonist	–
O=c1c2ccc(O)cc2c(-c2ccc(O)cc2)cn1-c1ccc(O)cc1 [Compound 6, 6-hydroxy-2,4-bis(4-hydroxyphenyl)isoquinolin-1(2H)-one]	1420	56.2	> 10000	> 10000	> 10000	1950	0	0	–	–	–	–	–	–	–	–	–
O=c1c2ccc(O)cc2c(-c2ccc(C(F)(F)F)cc2)cn1-c1ccc(C(F)(F)F)cc1 [Compound 30, 6-hydroxy-2,4-bis(4-(trifluoromethyl)phenyl)isoquinolin-1(2H)-one]	> 1510	> 2200	> 10000	> 10000	> 10000	> 10000	30	30	–	102.3 min	–	7.9 min	88.1	6.8	–	–	–
COc1ccc(-n2cc(-c3ccc(C(F)(F)F)cc3)c3cc(OC)ccc3c2=O)cc1 [Compound 35, 6-methoxy-2-(4-methoxyphenyl)-4-(4-(trifluoromethyl)phenyl)isoquinolin-1(2H)-one]	> 1510	> 2200	> 10000	> 10000	> 10000	> 10000	0	0	–	–	–	–	–	–	–	–	–
O=c1c2ccc(O)cc2c(-c2ccc(C(F)(F)F)cc2)cn1-c1ccc(F)cc1 [Compound 34, 2-(4-fluorophenyl)-6-hydroxy-4-(4-(trifluoromethyl)phenyl)isoquinolin-1(2H)-one]	> 1510	> 2200	> 10000	> 10000	> 10000	> 10000	10	10	–	–	–	–	–	–	–	–	–
O=C(O)/C=C/c1cn(-c2ccc(O)cc2)c(=O)c2ccc(O)cc12 [Compound 15k]	> 151	> 220	–	–	–	–	12	–	–	–	–	–	–	–	–	–	–
O=c1c2ccc(O)cc2c(-c2ccc(O)cc2)cn1-c1ccc(CBr)cc1 [Compound 11, 2-(4-bromomethyl)phenyl-6-hydroxy-4-(4-hydroxyphenyl)isoquinolin-1(2H)-one]	–	> 2200	> 10000	> 10000	> 10000	> 10000	55	55	119 µL/min/mg	8.23 min and 5.90 min	–	5.0 min	138	84.1	–	–	5180
O=c1c2ccc(O)cc2c(-c2ccccc2)cn1-c1ccc(O)cc1 [Compound 15a, 6-hydroxy-2-(4-hydroxyphenyl)-4-phenylisoquinolin-1(2H)-one]	–	130	–	–	> 10000	918	0	–	–	152.8 min	–	23.3 min	29.7	4.5	–	–	16100
O=c1c2c(O)cc(O)cc2c(-c2ccccc2)cn1-c1ccc(O)cc1 [Compound 15h, 6,8-dihydroxy-2-(4-hydroxyphenyl)-4-phenylisoquinolin-1(2H)-one]	–	3.03	> 10000	2030	> 10000	53.4	0	–	–	87.1 min	–	11.4 min	60.7	7.9	–	–	6640
